Assay results: PubChem BioAssay AID248 (DTP/NCI, 2004)
Values joined by “and” are separate entries in the source; they are usually repeats but may differ in a detail not shown here. Equal entries are not always repeated. Inconclusive results and toxic doses are left out. Rule as the data show it: active = T/C of 150% or more; inactive = T/C below 125%.

System: L1210 leukemia ip in BDF1 mice, survival T/C
Assay: NCI In Vivo Anticancer Drug Screen. Data for tumor model L1210 Leukemia (intraperitoneal) in B6D2F1 (BDF1) mice
Conditions: endpoint: mean survival time, higher = longer survival
How it was run: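 Value reflects the ratio of survival in compound-treated mice to survival in vehicle-treated controls, with both groups carrying the same transplanted tumor.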

[1] = dose: 100.0 mg/kg/injection, schedule: Q04DX003 (ip), vehicle: saline
[2] = dose: 200.0 mg/kg/injection, schedule: Q04DX003 (ip), vehicle: saline
[3] = dose: 400.0 mg/kg/injection, schedule: Q04DX003 (ip), vehicle: saline
[4] = dose: 100.0 mg/kg/injection, schedule: Q01DX009 (ip), vehicle: Klucel (hydroxypropylcellulose) (HPC)
[5] = dose: 200.0 mg/kg/injection, schedule: Q01DX009 (ip), vehicle: Klucel (hydroxypropylcellulose) (HPC)
[6] = dose: 400.0 mg/kg/injection, schedule: Q01DX009 (ip), vehicle: Klucel (hydroxypropylcellulose) (HPC)
[7] = dose: 100.0 mg/kg/injection, schedule: Q01DX001 (ip), vehicle: saline
[8] = dose: 200.0 mg/kg/injection, schedule: Q01DX001 (ip), vehicle: saline
[9] = dose: 400.0 mg/kg/injection, schedule: Q01DX001 (ip), vehicle: saline
[10] = dose: 100.0 mg/kg/injection, schedule: Q04DX003 (ip), vehicle: Klucel (hydroxypropylcellulose) (HPC)
[11] = dose: 200.0 mg/kg/injection, schedule: Q04DX003 (ip), vehicle: Klucel (hydroxypropylcellulose) (HPC)
[12] = dose: 400.0 mg/kg/injection, schedule: Q04DX003 (ip), vehicle: Klucel (hydroxypropylcellulose) (HPC)
[13] = dose: 50.0 mg/kg/injection, schedule: Q04DX003 (ip), vehicle: Klucel (hydroxypropylcellulose) (HPC)

Measured: T/C

CCOc1ccc(NC(=O)Nc2ccccc2Cl)cc1
inactive: dose: 6.0 mg/kg/injection, schedule: Q01DX009 (ip), vehicle: Klucel (hydroxypropylcellulose) (HPC) 93 % of control | dose: 12.0 mg/kg/injection, schedule: Q01DX009 (ip), vehicle: Klucel (hydroxypropylcellulose) (HPC) 88 % of control | dose: 25.0 mg/kg/injection, schedule: Q01DX009 (ip), vehicle: Klucel (hydroxypropylcellulose) (HPC) 97 % of control | dose: 25.0 mg/kg/injection, schedule: Q01DX009 (ip), vehicle: gum acacia 89 % of control | dose: 200.0 mg/kg/injection, schedule: Q01DX009 (ip), vehicle: gum acacia 91 % of control | dose: 200.0 mg/kg/injection, schedule: Q04DX003 (ip), vehicle: gum acacia 92 % of control | dose: 400.0 mg/kg/injection, schedule: Q04DX003 (ip), vehicle: gum acacia 90 % of control

CCC[CH2][Sn]([CH2]C)([CH2]CCC)[CH2]CCC
inactive: [1] 93 % of control | [2] 93 % of control | [3] 95 % of control

CCC1(O)CC(OC2CC(N(C)C)C(OC3CC(O)C(O)C(C)O3)C(C)O2)c2c(cc3c(c2O)C(=O)c2c(O)ccc(O)c2C3=O)C1C(=O)OC (stereo unspecified)
inactive: dose: 1.6 mg/kg/injection, schedule: Q01DX001 (ip), vehicle: saline 108 % of control | dose: 3.2 mg/kg/injection, schedule: Q01DX001 (ip), vehicle: saline 104 % of control | dose: 6.4 mg/kg/injection, schedule: Q01DX001 (ip), vehicle: saline 105 % of control

CN(CCNC(=O)Nc1ccccc1)c1ccccc1
inactive: [4] 101 % of control | [5] 97 % of control | [6] 105 % of control

O=C1NC(c2ccc(F)cc2)OC1C(=O)c1ccccc1 (stereo unspecified)
inactive: [7] 104 % of control | [8] 110 % of control | [9] 104 % of control

O=C(NCc1ccccc1)Nc1ccccc1
inactive: [10] 96 % of control | [11] 100 % of control | [12] 96 % of control

c1ccc(-c2[nH]c3ccccc3c2-c2ccccc2)cc1
inactive: [13] 90 % of control | [4] 106 % of control | [10] 98 % of control | [5] 103 % of control | [11] 106 % of control | [6] 96 % of control | [12] 92 % of control

COC(=O)C1C2CCC3C2C(C)(C)CCCC31C (stereo unspecified)
inactive: [10] 98 % of control | [11] 106 % of control | [12] 103 % of control

C[n+]1c(/C=C/c2ccc3c(c2)OCO3)ccc2ccccc21
inactive: dose: 25.0 mg/kg/injection, schedule: Q01DX009 (ip), vehicle: saline with Tween-80 108 % of control | dose: 25.0 mg/kg/injection, schedule: Q04DX003 (ip), vehicle: Klucel (hydroxypropylcellulose) (HPC) 106 % of control | dose: 33.0 mg/kg/injection, schedule: Q01DX009 (ip), vehicle: gum acacia 114 % of control | dose: 50.0 mg/kg/injection, schedule: Q01DX009 (ip), vehicle: gum acacia 98 % of control | [13] 101 % of control | [10] 95 % of control and 89 % of control

CC(=O)NC(CO)(CO)CO
inactive: [7] 94 % of control | dose: 100.0 mg/kg/injection, schedule: Q01DX009 (ip), vehicle: saline 94 % of control | [8] 102 % of control | dose: 200.0 mg/kg/injection, schedule: Q01DX009 (ip), vehicle: saline 89 % of control | [9] 98 % of control | dose: 400.0 mg/kg/injection, schedule: Q01DX009 (ip), vehicle: saline 90 % of control

O=C(c1ccc(OC(F)F)cc1)N1CCCCC1
inactive: [10] 94 % of control | [11] 93 % of control | [12] 96 % of control

N#CCCOc1ccc(Cl)cc1
inactive: dose: 100.0 mg/kg/injection, schedule: Q04DX003 (ip), vehicle: saline with Tween-80 96 % of control | dose: 200.0 mg/kg/injection, schedule: Q04DX003 (ip), vehicle: saline with Tween-80 99 % of control

CC[Si](C)(C)N1CC1
inactive: dose: 12.5 mg/kg/injection, schedule: Q01DX001 (ip), vehicle: carboxymethylcellulose (CMC) 106 % of control | dose: 25.0 mg/kg/injection, schedule: Q01DX001 (ip), vehicle: carboxymethylcellulose (CMC) 101 % of control | dose: 50.0 mg/kg/injection, schedule: Q04DX003 (ip), vehicle: carboxymethylcellulose (CMC) 94 % of control | dose: 100.0 mg/kg/injection, schedule: Q04DX003 (ip), vehicle: carboxymethylcellulose (CMC) 101 % of control | dose: 200.0 mg/kg/injection, schedule: Q04DX003 (ip), vehicle: carboxymethylcellulose (CMC) 101 % of control

COC(=O)c1csc(CCN)n1
inactive: [1] 102 % of control | [2] 94 % of control | [3] 97 % of control

CCCCCC(=O)/C=C/CC(CCCCCCC#N)C(CC(OC)OC)[N+](=O)[O-] (stereo unspecified)
inactive: [10] 100 % of control | [11] 96 % of control | [12] 96 % of control

CCOP(=O)(OCC)O/N=C(/SC)C(C)C
inactive: dose: 5.0 mg/kg/injection, schedule: Q01DX001 (ip), vehicle: saline 100 % of control | dose: 10.0 mg/kg/injection, schedule: Q01DX001 (ip), vehicle: saline 111 % of control | dose: 20.0 mg/kg/injection, schedule: Q01DX001 (ip), vehicle: saline 103 % of control | dose: 40.0 mg/kg/injection, schedule: Q01DX001 (ip), vehicle: saline 100 % of control | dose: 80.0 mg/kg/injection, schedule: Q01DX001 (ip), vehicle: saline 116 % of control

Cc1cc(=O)oc2cc(OCc3ccccc3)cc(O)c12
inactive: dose: 75.0 mg/kg/injection, schedule: Q01DX001 (ip), vehicle: other 103 % of control | dose: 150.0 mg/kg/injection, schedule: Q01DX001 (ip), vehicle: other 108 % of control | dose: 300.0 mg/kg/injection, schedule: Q01DX001 (ip), vehicle: other 108 % of control

O=[N+]([O-])c1cccc(-c2nc3ncncc3[nH]2)c1
inactive: dose: 50.0 mg/kg/injection, schedule: Q01DX001 (ip), vehicle: saline with Tween-80 102 % of control | dose: 100.0 mg/kg/injection, schedule: Q01DX001 (ip), vehicle: saline with Tween-80 101 % of control | dose: 200.0 mg/kg/injection, schedule: Q01DX001 (ip), vehicle: saline with Tween-80 98 % of control

O=[N+]([O-])c1ccc(C[N+]2(CCC[N+]3(Cc4ccc([N+](=O)[O-])cc4)CCCC3)CCCC2)cc1
inactive: dose: 9.38 mg/kg/injection, schedule: Q01DX001 (ip), vehicle: other 107 % of control | dose: 18.75 mg/kg/injection, schedule: Q01DX001 (ip), vehicle: other 105 % of control

Cc1c(O)ccc(O)c1C
inactive: [7] 100 % of control | [8] 95 % of control

O=[N+]([O-])c1ccc2scnc2c1
inactive: dose: 100.0 mg/kg/injection, schedule: Q01DX001 (ip), vehicle: acetone 98 % of control | dose: 100.0 mg/kg/injection, schedule: Q04DX003 (ip), vehicle: acetone 107 % of control | dose: 200.0 mg/kg/injection, schedule: Q01DX001 (ip), vehicle: acetone 92 % of control | dose: 200.0 mg/kg/injection, schedule: Q04DX003 (ip), vehicle: acetone 89 % of control | dose: 400.0 mg/kg/injection, schedule: Q01DX001 (ip), vehicle: acetone 95 % of control | dose: 400.0 mg/kg/injection, schedule: Q04DX003 (ip), vehicle: acetone 96 % of control
